Our source for the inhibition and IC50 values is ChEMBL document CHEMBL2406948, “Skeletal rearrangement of seven-membered iminosugars: synthesis of (-)-adenophorine, (-)-1-epi-adenophorine and derivatives and evaluation as glycosidase inhibitors” (Bioorg Med Chem, 2013).

Assay [1] has as its target T1, Beta-galactosidase (Bos taurus) (UniProt Q58D55).
T1 sequence (whole entry): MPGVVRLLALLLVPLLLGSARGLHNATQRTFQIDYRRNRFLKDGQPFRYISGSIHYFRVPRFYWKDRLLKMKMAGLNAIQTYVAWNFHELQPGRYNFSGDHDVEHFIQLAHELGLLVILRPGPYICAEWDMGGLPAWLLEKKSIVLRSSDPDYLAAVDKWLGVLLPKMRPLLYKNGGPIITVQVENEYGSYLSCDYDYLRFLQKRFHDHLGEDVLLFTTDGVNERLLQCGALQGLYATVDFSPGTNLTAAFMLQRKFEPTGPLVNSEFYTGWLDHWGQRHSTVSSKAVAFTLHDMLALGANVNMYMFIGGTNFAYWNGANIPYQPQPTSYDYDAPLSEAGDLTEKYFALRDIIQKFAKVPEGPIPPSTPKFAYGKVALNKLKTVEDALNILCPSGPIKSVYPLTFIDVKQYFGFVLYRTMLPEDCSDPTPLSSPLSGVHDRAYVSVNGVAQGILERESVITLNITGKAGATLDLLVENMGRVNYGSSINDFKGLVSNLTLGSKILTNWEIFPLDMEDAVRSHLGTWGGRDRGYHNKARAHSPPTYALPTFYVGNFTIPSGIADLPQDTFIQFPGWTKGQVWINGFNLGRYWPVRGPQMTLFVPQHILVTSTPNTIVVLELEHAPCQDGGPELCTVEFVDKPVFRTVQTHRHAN
Put plainly: Inhibition of bovine liver beta-galactosidase at 1000 uM.

Assay [2] concerns the target T2, Tissue alpha-L-fucosidase (Bos taurus) (UniProt Q2KIM0).
T2 sequence (whole entry): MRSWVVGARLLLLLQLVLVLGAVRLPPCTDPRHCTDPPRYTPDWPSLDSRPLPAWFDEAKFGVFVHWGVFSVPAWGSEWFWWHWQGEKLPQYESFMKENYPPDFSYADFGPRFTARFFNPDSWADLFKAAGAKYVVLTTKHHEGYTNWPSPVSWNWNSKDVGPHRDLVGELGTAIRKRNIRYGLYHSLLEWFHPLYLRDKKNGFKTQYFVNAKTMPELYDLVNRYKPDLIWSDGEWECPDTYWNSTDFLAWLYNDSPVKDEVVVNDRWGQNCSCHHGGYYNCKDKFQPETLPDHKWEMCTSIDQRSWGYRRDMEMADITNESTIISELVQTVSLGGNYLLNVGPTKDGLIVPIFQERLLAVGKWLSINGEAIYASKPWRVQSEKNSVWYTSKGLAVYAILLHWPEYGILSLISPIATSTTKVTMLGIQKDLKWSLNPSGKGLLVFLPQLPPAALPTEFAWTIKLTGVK
Put plainly: Inhibition of bovine kidney alpha-L-fucosidase at 1000 uM.

The target in assay [3] is T3, Glucosylceramidase (Bos taurus) (UniProt Q2KHZ8).
T3 sequence (whole entry): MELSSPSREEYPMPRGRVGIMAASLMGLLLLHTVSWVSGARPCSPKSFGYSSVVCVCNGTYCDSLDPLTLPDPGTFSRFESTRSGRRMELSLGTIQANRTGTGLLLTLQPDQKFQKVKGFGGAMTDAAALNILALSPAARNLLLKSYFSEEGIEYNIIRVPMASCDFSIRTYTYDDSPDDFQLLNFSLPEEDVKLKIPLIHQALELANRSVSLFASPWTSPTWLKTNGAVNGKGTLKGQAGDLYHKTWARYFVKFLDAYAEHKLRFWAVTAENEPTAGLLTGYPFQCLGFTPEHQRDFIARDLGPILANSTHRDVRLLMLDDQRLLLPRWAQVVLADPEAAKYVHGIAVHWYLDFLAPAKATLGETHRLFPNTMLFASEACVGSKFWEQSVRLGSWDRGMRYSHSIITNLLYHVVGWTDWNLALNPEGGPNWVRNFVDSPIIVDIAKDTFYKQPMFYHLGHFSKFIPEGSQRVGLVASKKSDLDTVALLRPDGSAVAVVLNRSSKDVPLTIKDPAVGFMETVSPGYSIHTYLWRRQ
Nature of the assay: Inhibition of bovine liver beta-glucosidase at 1000 uM.

In assay [4] the test system is Escherichia coli. Nature of the assay: Inhibition of Escherichia coli beta-glucuronidase at 1000 uM.
Assay [5] can be described thus: Inhibition of Escherichia coli beta-glucuronidase.
Assay [6] has as its target T4, Tissue alpha-L-fucosidase (Bos taurus, UniProt Q2KIM0).
T4 sequence (Q2KIM0 whole entry): T2 sequence (whole entry)
Nature of the assay: Inhibition of bovine kidney alpha-L-fucosidase.

The target of assay [7] is T5, Beta-galactosidase (Bos taurus, UniProt Q58D55).
T5 sequence (Q58D55 whole entry): T1 sequence (whole entry)
Put plainly: Inhibition of bovine liver beta-galactosidase.

Assay [8] in a line: Inhibition of Penicillium decumbens alpha-L-rhamnosidase.

Each structure is given as a SMILES string.

Broadly, the inhibition is how much of the control response was suppressed. Low readings indicate a weak effect, high ones a strong effect. For orientation: IC50 means the concentration that gives 50% inhibition. A high value points to a need for much substance.

`CC[C@@H]1N[C@H](CC)[C@H](O)[C@@H](O)[C@@H]1O`: the inhibition amounted to 9.7% in assay [1], 0% in assay [2], 21.6% in assay [3] and 12.9% in assay [4].

Consider `CCC[C@@H]1N[C@@H](CO)[C@@H](O)[C@H](O)[C@H]1O`, for which the IC50 in assay [5] was 586 µM; in assay [6], 713 µM. In addition, the inhibition in assay [1] came out at 26.8%; in assay [3], 13.2%.

Turning to `CC[C@@H]1NC[C@@H](O)[C@@H](O)[C@H](O)[C@H]1O`, the inhibition in assay [2] was found to be 37.2%; in assay [4], 18.1%. Besides, the half-inhibitory concentration (IC50) in assay [7] was 526 µM; in assay [8], 231 µM.

On to `CC[C@H]1NC[C@@H](O)[C@@H](O)[C@H](O)[C@H]1O`, for which the inhibition in assay [1] is 12.1%; in assay [2], 36.7%; in assay [3], 24.6%; in assay [4] it was 3.1%.

Turning to `CC[C@H]1N[C@@H](CO)[C@@H](O)[C@H](O)[C@H]1O`, the inhibition in assay [1] was found to be 20.3%; in assay [3], 32.8%; in assay [4], 11%. For the same molecule, the IC50 in assay [6] is 208 µM.

With `CC[C@@H]1N[C@@H](CO)[C@@H](O)[C@H](O)[C@H]1O`, the inhibition in assay [1] is 6.5%; in assay [3], 12.6%; in assay [4], 7.2%. Also, in assay [6], the half-maximal inhibitory concentration (IC50) turned out to be 72 µM.
